Measured values reported in ChEMBL document CHEMBL1909046, “DrugMatrix in vitro pharmacology data”.

Tests used:
[1] = molecular target: 5-hydroxytryptamine receptor 2B (Homo sapiens, UniProt P41595); format: cell membranes, CHO-K1, Membrane; settings: cho-k1; note: in other assays of this panel Not Active means under 50% inhibition at 10 µM
[2] = DRUGMATRIX: Glutamate, AMPA radioligand binding (ligand: [3H] AMPA); format: cell membranes, Rattus norvegicus, Wistar, Cerebral cortex, Membrane; settings: Not Active = under 50% inhibition at 10 µM
[3] = molecular target: T1, 3-hydroxy-3-methylglutaryl-coenzyme A reductase (Homo sapiens, UniProt P04035); parameters: species or system Escherichia coli;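 note: enzyme inhibition assay of HMG-CoA reductase using radiolabeled [14C]HMG-CoA as substrate; in other assays of this panel Not Active means under 50% inhibition at 10 µM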
T1 sequence (P04035 whole entry): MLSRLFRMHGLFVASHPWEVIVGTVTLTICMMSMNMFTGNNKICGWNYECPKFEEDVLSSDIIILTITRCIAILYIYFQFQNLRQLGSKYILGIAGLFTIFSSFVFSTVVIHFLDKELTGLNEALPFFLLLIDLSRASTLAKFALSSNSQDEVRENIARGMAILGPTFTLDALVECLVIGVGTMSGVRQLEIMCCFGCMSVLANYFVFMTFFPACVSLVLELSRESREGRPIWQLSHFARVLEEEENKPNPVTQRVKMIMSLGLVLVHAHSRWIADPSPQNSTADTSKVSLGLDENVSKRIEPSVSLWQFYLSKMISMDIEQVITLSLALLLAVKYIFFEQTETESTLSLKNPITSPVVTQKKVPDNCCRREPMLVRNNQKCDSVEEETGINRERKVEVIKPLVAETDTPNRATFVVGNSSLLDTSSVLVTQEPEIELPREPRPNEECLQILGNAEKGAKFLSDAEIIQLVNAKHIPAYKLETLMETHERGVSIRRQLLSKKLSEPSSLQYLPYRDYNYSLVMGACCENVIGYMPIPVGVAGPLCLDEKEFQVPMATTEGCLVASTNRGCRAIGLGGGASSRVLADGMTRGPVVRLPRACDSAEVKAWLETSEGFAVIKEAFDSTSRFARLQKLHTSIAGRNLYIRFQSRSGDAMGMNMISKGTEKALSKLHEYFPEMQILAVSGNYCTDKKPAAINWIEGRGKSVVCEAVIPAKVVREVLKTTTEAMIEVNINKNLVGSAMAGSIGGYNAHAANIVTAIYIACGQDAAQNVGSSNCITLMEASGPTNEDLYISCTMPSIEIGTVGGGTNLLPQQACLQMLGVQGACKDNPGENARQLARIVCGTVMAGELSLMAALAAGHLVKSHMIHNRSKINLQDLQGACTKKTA

[4] = DRUGMATRIX: Atrial Natriuretic Factor (ANF) radioligand binding (ligand: [125I] ANF (rat)); format: cell membranes, Cavia porcellus, Dunkin-Hartley, Adrenal gland, Membrane; settings: Not Active = under 50% inhibition at 10 µM
[5] = DRUGMATRIX: GABAA, Flunitrazepam, Central radioligand binding (ligand: [3H] Flunitrazepam); format: cell membranes, Rattus norvegicus, Wistar, Brain, Membrane; settings: Not Active = under 50% inhibition at 10 µM
[6] = molecular target: C-C chemokine receptor type 2 (Homo sapiens, UniProt P41597); format: cell membranes, CHO-K1, Membrane; settings: cho-k1; note: in other assays of this panel Not Active means under 50% inhibition at 10 µM
C-C chemokine receptor type 2, sequence (P41597 whole entry): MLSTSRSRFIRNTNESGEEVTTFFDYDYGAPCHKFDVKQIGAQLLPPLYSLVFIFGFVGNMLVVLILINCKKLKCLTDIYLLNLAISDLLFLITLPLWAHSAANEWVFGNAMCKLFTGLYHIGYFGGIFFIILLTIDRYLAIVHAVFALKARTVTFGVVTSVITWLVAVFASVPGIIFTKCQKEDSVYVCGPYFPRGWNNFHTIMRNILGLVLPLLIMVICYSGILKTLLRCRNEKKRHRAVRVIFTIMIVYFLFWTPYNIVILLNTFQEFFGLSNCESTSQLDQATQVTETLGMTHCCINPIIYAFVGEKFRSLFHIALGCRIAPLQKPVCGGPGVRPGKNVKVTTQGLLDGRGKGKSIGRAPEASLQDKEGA

[7] = DRUGMATRIX: Glutamate, Kainate radioligand binding (ligand: [3H] Kainic acid); format: cell membranes, Rattus norvegicus, Wistar, Brain, Membrane; settings: Not Active = under 50% inhibition at 10 µM

5-hydroxytryptamine receptor 2B, sequence (P41595 whole entry): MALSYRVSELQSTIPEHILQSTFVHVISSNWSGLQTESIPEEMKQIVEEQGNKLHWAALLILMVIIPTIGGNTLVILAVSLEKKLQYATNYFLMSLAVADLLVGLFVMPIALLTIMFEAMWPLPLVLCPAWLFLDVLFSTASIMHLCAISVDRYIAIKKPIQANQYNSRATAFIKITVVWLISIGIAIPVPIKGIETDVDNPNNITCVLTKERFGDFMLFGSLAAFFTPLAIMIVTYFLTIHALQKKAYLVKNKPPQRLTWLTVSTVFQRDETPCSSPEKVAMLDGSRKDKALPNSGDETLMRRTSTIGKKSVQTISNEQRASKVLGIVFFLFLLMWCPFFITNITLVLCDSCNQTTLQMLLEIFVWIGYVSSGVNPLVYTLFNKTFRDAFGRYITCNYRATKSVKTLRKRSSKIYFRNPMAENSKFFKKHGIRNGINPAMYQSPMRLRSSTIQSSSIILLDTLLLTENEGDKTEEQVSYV

CCn1cc(C(=O)O)c(=O)c2cc(F)c(N3CCN(C)CC3)cc21 [PEFLOXACIN]
Not Active: IC50 [1] | IC50 [2] | Ki [2] | IC50 [3] | IC50 [4] | Ki [4] | IC50 [5] | Ki [5] | IC50 [6] | IC50 [7] | Ki [7]

CCCCOc1ccc(OCCCN2CCOCC2)cc1 [PRAMOXINE]
Not Active: IC50 [1] | IC50 [2] | Ki [2] | IC50 [3] | IC50 [4] | Ki [4] | IC50 [5] | Ki [5] | IC50 [6] | IC50 [7] | Ki [7]

O=C(C1CCCCC1)N1CC(=O)N2CCc3ccccc3C2C1 (centres undefined) [PRAZIQUANTEL]
Not Active: IC50 [1] | IC50 [2] | Ki [2] | IC50 [3] | IC50 [4] | Ki [4] | IC50 [5] | Ki [5] | IC50 [6] | IC50 [7] | Ki [7]

CCN(CC)CCOC(=O)c1ccc(N)cc1 [PROCAINE]
Not Active: IC50 [1] | IC50 [2] | Ki [2] | IC50 [3] | IC50 [4] | Ki [4] | IC50 [5] | Ki [5] | IC50 [6] | IC50 [7] | Ki [7]

CCCN(CCC)C(=O)C(CCC(=O)O)NC(=O)c1ccccc1 (centres undefined) [PROGLUMIDE]
Not Active: IC50 [1] | IC50 [2] | Ki [2] | IC50 [3] | IC50 [4] | Ki [4] | IC50 [5] | Ki [5] | IC50 [6] | IC50 [7] | Ki [7]

NC(=O)c1cnccn1 [PYRAZINAMIDE]
Not Active: IC50 [1] | IC50 [2] | Ki [2] | IC50 [3] | IC50 [4] | Ki [4] | IC50 [5] | Ki [5] | IC50 [6] | IC50 [7] | Ki [7]

OC(CCN1CCCCC1)(c1ccccc1)C1CCCCC1 (centres undefined) [TRIHEXYPHENIDYL]
Not Active: IC50 [1] | IC50 [2] | Ki [2] | IC50 [3] | IC50 [4] | Ki [4] | IC50 [5] | Ki [5] | IC50 [6] | IC50 [7] | Ki [7]

Cc1cc2cc3c(C)cc(=O)oc3c(C)c2o1 [TRIOXSALEN]
Not Active: IC50 [1] | IC50 [2] | Ki [2] | IC50 [3] | IC50 [4] | Ki [4] | IC50 [5] | Ki [5] | IC50 [6] | IC50 [7] | Ki [7]

CCCC(CCC)C(=O)O [VALPROIC ACID]
Not Active: IC50 [1] | IC50 [2] | Ki [2] | IC50 [3] | IC50 [4] | Ki [4] | IC50 [5] | Ki [5] | IC50 [6] | IC50 [7] | Ki [7]

CCC1=C[C@@H]2CN(C1)Cc1c([nH]c3ccccc13)[C@@](C(=O)OC)(c1cc3c(cc1OC)N(C)[C@H]1[C@@](O)(C(=O)OC)[C@H](OC(C)=O)[C@]4(CC)C=CCN5CC[C@]31[C@@H]54)C2 [VINORELBINE]
Not Active: IC50 [1] | IC50 [2] | Ki [2] | IC50 [3] | IC50 [4] | Ki [4] | IC50 [5] | Ki [5] | IC50 [6] | IC50 [7] | Ki [7]

CADMIUM DICHLORIDE
Not Active: IC50 [1] | Ki [1] | IC50 [2] | Ki [2] | IC50 [3] | Ki [3] | IC50 [4] | Ki [4] | IC50 [5] | Ki [5] | IC50 [6] | Ki [6] | IC50 [7] | Ki [7]
